Experimental findings from patent US12698279B2, “Polymorphs of a hydrochloride salt of PN6047” (Pharmnovo AB, priority 2020, dated 2026) are described below.

Where “and” joins values, the source holds several entries; their conditions need not be identical. Identical values can stand only once. Entries after “also recorded” stand apart in the source; their conditions may differ. Like-named read-outs stand apart in the source and are kept apart here.

Data set [1] can be described thus: Dynamic vapour sorption (DVS) hygroscopicity. To be noted: for hygroscopicity (classification as per the European Pharmacopoeia) / water uptake: 25° C./80% RH; for form by HT-XRPD after the DVS cycle: sorption-desorption-sorption 40-95-0-45% RH. In kind it is physicochemical. Here is the method:
Analyses were performed on a DVS-1 system from Surface Measurement Systems (London, UK). Weight equilibration per step was set at dm/dt<0.002 for a minimum of 1 hour or a maximum of 6 hours. The sample was subjected to a sorption-desorption-sorption cycle running from 40 to 95 to 0 to 45% RH, at a constant temperature of 25° C. One cycle consisted of 20 steps, those between 0 and 90% RH were taken in 10% RH each. Afterwards the sample was measured by HT-XRPD.
Forms HCl2 and HCl3 were subjected to DVS measurements to determine the hygroscopicity of these two forms. The material initially took up water slowly with increasing relative humidity (RH) up to about 90% RH. The change in mass was approximately 3.3%, corresponding to about 1 molecule of water per molecule of PN6047. […] The material was then gradually dried from 95 to 0% RH in steps of 10% RH. The corresponding mass change upon drying was different than the initial mass increase upon hydration. Finally, from 0 to 40% RH, the water uptake proceeded in the same way as in the preceding dehydration step. […] It is believed that the uptake of the 2 additional molecules of water may have led to a change from form HCl2 to form HCl3.
The material gradually took up water with increasing relative humidity (RH) up to 95% RH. […] The material was then gradually dried from 95 to 0% RH in steps of 10% RH. The corresponding mass change upon drying was approximately the same as the initial mass increase upon hydration. Finally, from 0 to 40% RH, the water uptake proceeded in the same way as the preceding dehydration step.

A short description of data set [2]: Incubation at high humidity or under vacuum, form by XRPD. The class given is physicochemical. The note with it: 2 days. As to the method:
To further understand the hygroscopic nature of form HCl2, a sample of the material was incubated at 85% RH at room temperature for 2 days.
A sample of Form HCl3 was further incubated at 50° C./1 mbar for 2 days to determine whether conversion to Form HCl2 would take place.

Data set [3] is described as follows: Solubility in water at pH 7. In kind it is physicochemical. As to the method: For instance, whereas the free base only sparingly dissolves in water at pH 7 (<1 mg/mL), Forms HCl2 and HCl3 are highly soluble in water at the same pH (>100 mg/mL). The higher solubility of the HCl salt allows continued investigation of the compound at higher concentrations, which is advantageous e.g. in toxicology studies. […] It is expected that the increased bioavailability (and thus the increased exposure) of the HCl salt may lead to an improved efficacy of PN6047 in the treatment of pain and other indications as mentioned herein. Possibly, the increased bioavailability may allow the HCl salt to be administered in substantially lower doses than the free base. The unexpected increase in bioavailability of the HCl salt may also enable the use of sustained release formulations of the compound.

A short description of data set [4]: Bioavailability study in rats. In kind it is in vivo. The note with it: male, Wistar, blood, rat, single dose, vs 1 mg/kg intravenous, read-out: Bioavailability (Fabs). Here is the method:
Male Wistar rats were used. Six groups of four animals each were used. Two groups were administered a single intravenous dose of 1 mg/kg of the free base or the HCl2 salt, one group was administered a single oral dose of 3 mg/kg of the free base, and three groups were administered a single oral dose of 3, 10 or 50 mg/kg of the HCl2 salt. Blood samples were collected after 0.25, 0.5, 1, 2, 4, 6, 8 and 24 hours following intravenous administration, and after 0.083, 0.25, 0.5, 1, 2, 4, 6, 8 and 24 hours following oral administration. The samples were analyzed using an LC/MS/MS system. The bioavailability (Fabs) is shown in Table 7 and was calculated as follows: […]

A short description of data set [5]: Solution stability study in saline (LCMS). In kind it is physicochemical. Here is the method: Experiments were performed in saline (0.9% NaCl in water). Two stock solutions of Form HCl2 in saline were prepared, one with a concentration of 10 mg/mL and one with a concentration of 100 mg/mL. The 10 mg/mL stock solution was prepared by dissolving 56 mg of material in 5 mL of saline. The 100 mg/mL stock solution was prepared by dissolving 196.2 mg of material in 1.75 mL saline. For each experiment involving 10 mg/mL, 0.5 mL of stock solution was transferred to an HPLC vial whereas for each experiment involving 100 mg/mL, 0.15 mL of stock solution was transferred to an HPLC vial. The HPLC vials were closed with a screw cap and placed in a Crystal16™ apparatus and incubated at different temperatures.
After the incubation time, the samples were diluted with acetonitrile/water 1:1 (v/v) and measured by LCMS to determine the API peak area.

Data set [6] in a line: Solid-state stability study (XRPD, TGA, LCMS). In kind it is physicochemical. The note with it: for LCMS API / TGA mass loss / XRPD: solid state. As to the method: The solid-state stability of Form HCl2 was determined by incubating samples of approximately 18 mg at different conditions (temperature and relative humidity). After 1 week and 4 weeks, the samples were analyzed by XRPD to determine the polymorphic form, by TGA to determine the mass loss upon heating and by LCMS to determine the API purity. The experimental details and results are described in Table 6.

`CN(C)C(=O)c1ccc(C(=C2CCN(Cc3cncs3)CC2)c2cccc(C(N)=O)c2)cc1` [Form HCl3, 4-[(3-carbamoylphenyl)[1-(1,3-thiazol-5-ylmethyl)piperidin-4-ylidene]methyl]-N,N-dimethylbenzamide]: in data set [1] (DVS, listed as form HCl3), the “hygroscopicity (classification as per the European Pharmacopoeia)” value is recorded as “moderately hygroscopic” and the water uptake entry is “approximately 8.0%”. Also, the “form by HT-XRPD after the DVS cycle” value in data set [1] (25° C., listed as form HCl3) is listed as “form HCl3 was still present”. Besides, the form after drying result in data set [2] (50° C./1 mbar) was “poorly crystalline phase of Form HCl3; also recorded: less crystalline phase of Form HCl3”.

Broadly, the bioavailability is the share of a dose that reaches the circulation, judged against a reference dose that is usually intravenous. On to `CN(C)C(=O)c1ccc(C(=C2CCN(Cc3cncs3)CC2)c2cccc(C(N)=O)c2)cc1` [Free base, 4-[(3-carbamoylphenyl)[1-(1,3-thiazol-5-ylmethyl)piperidin-4-ylidene]methyl]-N,N-dimethylbenzamide], for which the solubility in water in data set [3] is < 1 mg/mL. Besides, the bioavailability in data set [4] (oral 3 mg/kg) came to 8%.

As to `CN(C)C(=O)c1ccc(C(=C2CCN(Cc3cncs3)CC2)c2cccc(C(N)=O)c2)cc1` [Form HCl2, 4-[(3-carbamoylphenyl)[1-(1,3-thiazol-5-ylmethyl)piperidin-4-ylidene]methyl]-N,N-dimethylbenzamide], the “relative humidity at which the form absorbs water and transforms into Form HCl3” value in data set [1] is > 85 % RH. Moreover, the “relative humidity up to which the form is believed stable” value in data set [1] is “up to 85 % RH”. The same compound yielded a mass increase in data set [1] (DVS, 25° C., from 90 to 95% RH) of 10.0%. Further, the change in mass result in data set [1] (DVS, 25° C., increasing RH up to about 90% RH) is listed as “approximately 3.3%”. In addition, the “hygroscopicity (classification as per the European Pharmacopoeia)” value was “moderate hygroscopicity” in data set [1] (DVS) and “moderately hygroscopic” in data set [1] (DVS, listed as form HCl2). The water uptake entry is given as “approximately 2.2%” in data set [1] (DVS) and “approximately 2.2%” in data set [1] (DVS, listed as form HCl2). In addition, the “form by HT-XRPD after the DVS cycle” value in data set [1] (25° C., listed as form HCl2) is recorded as “conversion had taken place from form HCl2 to form HCl3”. The “form by XRPD after incubation” value in data set [2] (85% RH, room temperature) is on record as “conversion into form HCl3 had taken place”. For the same compound, the “time chemically stable in saline” value in data set [5] is on record as “up to 1 week”. The “LCMS API” value in data set [5] (10 mg/mL, 5° C., 3 d) was found to be 99.9 area %; in data set [5] (10 mg/mL, 5° C., 4 d), 99.9 area %; in data set [5] (10 mg/mL, 5° C., 7 d) it was 99.9 area %; in data set [5] (10 mg/mL, 25° C., 0 d) it was 99.9 area %; in data set [5] (10 mg/mL, 25° C., 3 d), 99.9 area %; in data set [5] (10 mg/mL, 25° C., 4 d), 99.9 area %. The “LCMS API” value turned out to be 99.9 area % in data set [5] (10 mg/mL, 25° C., 7 d); 99.9 area % in data set [5] (10 mg/mL, 40° C., 3 d); 99.9 area % in data set [5] (10 mg/mL, 40° C., 4 d); 99.9 area % in data set [5] (10 mg/mL, 40° C., 7 d); 99.9 area % in data set [5] (100 mg/mL, 5° C., 3 d); 99.9 area % in data set [5] (100 mg/mL, 5° C., 4 d). The “LCMS API” value in data set [5] (100 mg/mL, 5° C., 7 d) is reported as 99.9 area %; in data set [5] (100 mg/mL, 25° C., 0 d) it was 99.9 area %; in data set [5] (100 mg/mL, 25° C., 3 d), 99.9 area %; in data set [5] (100 mg/mL, 25° C., 4 d), 99.9 area %; in data set [5] (100 mg/mL, 25° C., 7 d), 99.9 area %; in data set [5] (100 mg/mL, 40° C., 3 d), 99.9 area %. The “LCMS API” value worked out at 99.9 area % in data set [5] (100 mg/mL, 40° C., 4 d); 100.0 area % in data set [5] (100 mg/mL, 40° C., 7 d); 100 area % in data set [6] (1 week, 25° C./60% RH); 100 area % in data set [6] (1 week, 40° C./75% RH); 100 area % in data set [6] (1 week, 60° C./38% RH); 100 area % in data set [6] (4 weeks, 25° C./60% RH). The “LCMS API” value in data set [6] (4 weeks, 40° C./75% RH) came out at 100 area %; in data set [6] (4 weeks, 60° C./38% RH) it was 100 area %; in data set [6] (incubation time 0), 100 area %. For the same compound, in data set [6] (25° C./60% RH, 40° C./75% RH and 60° C./38% RH), the time physically stable is recorded as ≥ 4 weeks. The TGA mass loss in data set [6] (1 week, 25° C./60% RH) was determined as 1.8 wt %; in data set [6] (1 week, 40° C./75% RH), 1.9 wt %; in data set [6] (1 week, 60° C./38% RH), 1.9 wt %; in data set [6] (4 weeks, 25° C./60% RH) it was 1.5 wt %; in data set [6] (4 weeks, 40° C./75% RH), 1.6 wt %; in data set [6] (4 weeks, 60° C./38% RH), 1.9 wt %. Further, the TGA mass loss in data set [6] (incubation time 0) turned out to be 1.0 wt %. For the same compound, the XRPD result in data set [6] (1 week, 25° C./60% RH) is on record as “HCl2”; in data set [6] (1 week, 40° C./75% RH), “HCl2”; in data set [6] (1 week, 60° C./38% RH) it was “HCl2”; in data set [6] (4 weeks, 25° C./60% RH) it was “HCl2”; in data set [6] (4 weeks, 40° C./75% RH) it was “HCl2”; in data set [6] (4 weeks, 60° C./38% RH) it was “HCl2”. Moreover, the XRPD result in data set [6] (incubation time 0) is listed as “HCl2”. Also, the bioavailability is 24% in data set [4] (oral 3 mg/kg); 35.5% in data set [4] (oral 10 mg/kg); 35% and 34.6% in data set [4] (oral 50 mg/kg).
